The values below come from patent US9150546B2, “Triazine derivative and pharmaceutical composition comprising the same” (SHIONOGI & CO., LTD., priority 2009, dated 2015).

In general, IC50 refers to the concentration that gives 50% inhibition.

The target of the test is human P2X3 receptor (Homo sapiens (Human), UniProt P56373). Put plainly: P2X3 receptor inhibition, ATP-evoked Fluo-3 fluorescence (FDSS 3000). The test is classed as cell-based. The settings on record: C6BU-1 cell transfected with human P2X3 receptor gene.
Chain of human P2X3 receptor (P56373 whole entry): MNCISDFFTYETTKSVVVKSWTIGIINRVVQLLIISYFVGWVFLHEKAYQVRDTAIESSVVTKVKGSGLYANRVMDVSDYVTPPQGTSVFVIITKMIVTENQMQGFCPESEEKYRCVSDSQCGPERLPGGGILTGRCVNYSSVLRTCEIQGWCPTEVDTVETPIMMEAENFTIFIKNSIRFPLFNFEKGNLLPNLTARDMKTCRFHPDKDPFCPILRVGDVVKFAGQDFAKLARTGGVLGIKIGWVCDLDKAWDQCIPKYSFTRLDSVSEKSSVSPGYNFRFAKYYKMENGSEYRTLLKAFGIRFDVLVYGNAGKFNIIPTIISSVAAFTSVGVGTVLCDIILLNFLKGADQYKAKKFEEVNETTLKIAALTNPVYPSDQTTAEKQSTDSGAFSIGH
In the case of `COC(=O)C(C)(C)Cn1c(=O)[nH]/c(=N\c2ccc3nc(C)oc3c2)n(Cc2ccc(Cl)cc2)c1=O` [I-494], the IC50 is 34 nM.

For the compound `Cc1cc(/N=c2\[nH]c(=O)n(CCCC(=O)O)c(=O)n2Cc2ccc(Cl)cc2)ccc1OC(C)C` [I-503], the IC50 is 50 nM.

Compound `CC(C)Oc1ccc(Nc2nc(=O)n(CCO)c(=O)n2Cc2ccc([N+](=O)[O-])cc2)cc1F` [I-347] gave a half-maximal inhibitory concentration (IC50) of 251 nM. Against the preceding compound, the IC50 is about 5-fold higher.

`CC(C)Oc1ccc(Nc2nc(=O)n(CC(N)=O)c(=O)n2Cc2ccc(Cl)cc2)cc1F` [I-295] came in with an IC50 of 46 nM.

Compound `CCCn1ccc2cc(/N=c3\[nH]c(=O)n(CC(C)(C)C(=O)OC)c(=O)n3Cc3ccc(Cl)cc3)ccc21` [I-507] came in with an IC50 of 301 nM. Against the preceding compound, the IC50 is about 6.5-fold higher.

In the case of `COC(=O)C(C)(C)Cn1c(=O)[nH]/c(=N\c2ccc(OC(C)C)c(C)c2)n(Cc2ccc(Cl)cc2)c1=O` [I-431], the IC50 is 4 nM.

As to `COC(=O)C[C@H](C)n1c(=O)[nH]/c(=N\c2ccc(OC(C)C)c(C)c2)n(Cc2ccc(Cl)cc2)c1=O` [I-524], the midpoint of inhibition, the IC50, lay at 60 nM.

Regarding `COC(=O)C(C)(C)Cn1c(=O)[nH]/c(=N\c2ccc(OC(C)C)c(Cl)c2)n(CC2CCCC2)c1=O` [I-550], the IC50 was found to be 33 nM. This IC50 is about 1.8-fold lower than that of the compound before.

Compound `CSc1ccc(/N=c2\[nH]c(=O)n(CC(C)(C)C(=O)O)c(=O)n2Cc2ccc(Cl)cc2)cc1` [I-544] yielded an IC50 of 601 nM. This IC50 lies about 18-fold higher than the previous one.

Consider `CC(C)Oc1ccc(/N=c2\[nH]c(=O)n(C[C@H](C)C(=O)O)c(=O)n2Cc2ccc(Cl)cc2)cc1F` [I-456], for which half-maximal inhibition (IC50) was put at 8 nM.

As to `CC(C)Oc1ccc(/N=c2\[nH]c(=O)n([C@H](C)CC(=O)O)c(=O)n2Cc2ccc(Cl)cc2)cc1F` [I-562], the IC50 stood at 27 nM.

`CC(C)Oc1ccc(/N=c2\[nH]c(N3CCCC3=O)nc(=O)n2Cc2ccc(Cl)cc2)cc1Cl` [II-012] displayed an IC50 of 568 nM.

In turn, `CC(C)Oc1ccc(Nc2nc(=O)n(C(C)C)c(=O)n2Cc2ccc(F)cc2)cc1` [I-133] had an IC50 of 339 nM.

In turn, `Cc1cc(/N=c2\[nH]c(=O)n(C[C@@H](C)C(=O)O)c(=O)n2Cc2ccc(Cl)cc2)ccc1OC(C)C` [I-486] yielded an IC50 of 42 nM.

With `COC(=O)C[C@H](C)n1c(=O)[nH]/c(=N\c2ccc(OC(C)C)c(F)c2)n(Cc2ccc(Cl)cc2)c1=O` [I-523], half-maximal inhibition (IC50) required 72 nM. Compared with the last compound, the IC50 is about 1.7-fold higher.

`COc1ccc(/N=c2\[nH]c(=O)n(CC(C)(C)C(=O)O)c(=O)n2Cc2ccc(Cl)cc2)cc1C` [I-447] yielded an IC50 of 279 nM.

`CC(C)Oc1ccc(Nc2nc(OCC(CO)CO)nc(=O)n2Cc2ccc(Cl)cc2)cc1F` [II-008]: the IC50 came to 943 nM.

In turn, `CC(C)Cc1ccc(Nc2nc(=O)n(CC(CO)CO)c(=O)n2Cc2ccc(Cl)cc2)cc1` [I-366] came in with an IC50 of 46 nM.

Compound `COC(=O)[C@H](C)Cn1c(=O)[nH]/c(=N\c2ccc(OC(C)C)c(Cl)c2)n(Cc2ccc(Cl)cc2)c1=O` [I-457] gave an IC50 of 3 nM.

For `CSc1cccc(Nc2nc(=O)n(C(C)C)c(=O)n2Cc2ccc(F)cc2)c1` [I-130], half-maximal inhibition (IC50) was put at 953 nM.

The compound `COC(=O)[C@@H](C)Cn1c(=O)nc(Nc2ccc(OC(C)C)cc2)n(Cc2ccc(Cl)cc2)c1=O` [I-529] had an IC50 of 22 nM.

The compound `CC(C)Oc1ccc(/N=c2\[nH]c(=O)n([C@H](C)CC(=O)O)c(=O)n2Cc2ccc(Cl)cc2)cc1Cl` [I-561] showed an IC50 of 8 nM.

Compound `CC(C)Oc1ccc(Nc2nc(=O)n(CCO)c(=O)n2Cc2ccc(F)cc2)cc1F` [I-333] gave an IC50 of 192 nM.

Consider `Cc1cc(/N=c2\[nH]c(=O)n(C[C@H](C)C(=O)O)c(=O)n2Cc2ccc(Cl)cc2)ccc1OC(C)C` [I-538], for which half-maximal inhibition (IC50) was put at 16 nM. This IC50 lies about 12-fold lower than the previous one.

Regarding `Cc1cc2cc(/N=c3\[nH]c(=O)n(CCCC(=O)O)c(=O)n3Cc3ccc(Cl)cc3)ccc2o1` [I-505], the IC50 came to 120 nM.

On to `CC(C)n1c(=O)nc(Nc2cccc(OC(F)(F)F)c2)n(Cc2ccc(F)cc2)c1=O` [I-181], for which half-maximal inhibition (IC50) was put at 985 nM.

In the case of `CC(C)Oc1ccc(Nc2nc(=O)n(CCN)c(=O)n2Cc2ccc(Cl)cc2)cc1F` [I-290], the IC50 was found to be 266 nM. This IC50 lies about 3.7-fold lower than the previous one.

Regarding `Cc1nc2ccc(/N=c3\[nH]c(=O)n(CC(C)(C)C(=O)O)c(=O)n3Cc3ccc(Cl)cc3)cc2o1` [I-496], the IC50 came out at 125 nM.

`CC(C)Oc1ccc(Nc2nc(OCCO)nc(=O)n2Cc2ccc(Cl)cc2)cc1F` [II-002] registered an IC50 of 79 nM. Compared with the last compound, the IC50 is about 1.6-fold lower.

As for `Cc1ccc(Cn2c(Nc3ccc(Oc4ccccc4)cc3)nc(=O)n(C(C)C)c2=O)cc1` [I-116], the IC50 was 484 nM.

With `CCOC(=O)C1(Cn2c(=O)[nH]/c(=N\c3ccc(OC(C)C)c(Cl)c3)n(Cc3ccc(Cl)cc3)c2=O)CC1` [I-423], the IC50 was 4 nM.

`Cc1nc2cc(/N=c3\[nH]c(=O)n(CC(C)(C)C(=O)O)c(=O)n3Cc3ccc(Cl)cc3)ccc2o1` [I-497]: the IC50 stood at 458 nM.

With `CCOc1ccc(Nc2nc(=O)n(C[C@H](C)C(=O)OC)c(=O)n2Cc2ccc(Cl)cc2)cc1Cl` [I-533], the IC50 was 10 nM.

`Cc1ccc(Cn2c(Nc3ccc4[nH]ccc4c3)nc(=O)n(C(C)C)c2=O)cc1` [I-123]: the IC50 stood at 815 nM. Compared with the last compound, the IC50 is about 82-fold higher.

The compound `CC(C)Oc1ccc(/N=c2\[nH]c(=O)n(Cc3ccccc3C(=O)O)c(=O)n2Cc2ccc(Cl)cc2)cc1F` [I-459] displayed a 50% inhibitory concentration (IC50) of 39 nM.

On to `CC(C)Oc1ccc(/N=c2\[nH]c(=O)n(CCC(=O)NCC#N)c(=O)n2Cc2ccc(Cl)cc2)cc1F` [I-439], for which the IC50 came out at 18 nM. Compared with the last compound, the IC50 is about 2.2-fold lower.

Regarding `O=c1nc(Nc2cccc(C(F)(F)F)c2)n(Cc2ccc(Cl)cc2)c(=O)n1CCO` [I-313], the IC50 came out at 178 nM. This IC50 lies about 9.9-fold higher than the previous one.

For `Cc1cc(/N=c2\[nH]c(=O)n([C@@H](C)CC(=O)O)c(=O)n2Cc2ccc(Cl)cc2)ccc1OC(C)C` [I-528], the IC50 worked out at 53 nM.

In turn, `COC(=O)[C@@H](C)Cn1c(=O)[nH]/c(=N\c2ccc(OC(C)C)c(Cl)c2)n(Cc2ccc(Cl)cc2)c1=O` [I-458] showed an IC50 of 4 nM. This IC50 lies about 13-fold lower than the previous one.

For `O=c1nc(Nc2ccc(F)c(F)c2)n(Cc2ccc(Cl)cc2)c(=O)n1CCO` [I-316], the midpoint of inhibition, the IC50, lay at 712 nM.

`CC(C)(Cn1c(=O)[nH]/c(=N\c2ccc(OC(F)F)cc2)n(Cc2ccc(Cl)cc2)c1=O)C(=O)O` [I-543] came in with an IC50 of 172 nM. This IC50 lies about 4.1-fold lower than the previous one.

`CC(C)Oc1ccc(/N=c2\[nH]c(=O)n(C[C@H](C)C(=O)O)c(=O)n2CC2CCCCC2)cc1Cl` [I-552] yielded an IC50 of 23 nM.

`CC(C)n1c(=O)nc(Nc2ccc(C(=O)NCC3CC3)cc2)n(Cc2ccc(Cl)cc2)c1=O` [I-258] yielded an IC50 of 683 nM. This IC50 lies about 30-fold higher than the previous one.

Consider `CC(C)Oc1ccc(Nc2nc(=O)n(C(F)F)c(=O)n2Cc2ccc(Cl)cc2)cc1F` [I-310], for which inhibition was half-maximal at 389 nM (IC50). Compared with the last compound, the IC50 is about 1.8-fold lower.

`O=c1nc(Nc2ccc(-c3ccon3)cc2)n(Cc2ccc(Cl)cc2)c(=O)n1CCO` [I-278] gave an IC50 of 931 nM.

Consider `CNC(=O)NCCn1c(=O)nc(Nc2ccc(OC(C)C)c(F)c2)n(Cc2ccc(Cl)cc2)c1=O` [I-387], for which inhibition was half-maximal at 37 nM (IC50).

On to `CCN(CC)c1nc(=O)n(Cc2ccc(Cl)cc2)/c(=N/c2ccc(OC(C)C)c(Cl)c2)[nH]1` [II-013], for which the IC50 was 430 nM.

The compound `O=c1nc(Nc2cccc(-c3ccon3)c2)n(Cc2ccc(Cl)cc2)c(=O)n1CCO` [I-314] gave an IC50 of 555 nM.

On to `Cc1ccc(Cn2c(=O)n(CC(=O)NC3(C(=O)O)CC3)c(=O)[nH]/c2=N\c2ccc(OC(C)C)c(F)c2)cc1` [I-419], for which half-maximal inhibition (IC50) was put at 71 nM.

Turning to `COC(=O)C(C)(C)Cn1c(=O)[nH]/c(=N\c2ccc3[nH]ccc3c2)n(Cc2ccc(Cl)cc2)c1=O` [I-470], the IC50 was 80 nM.

For the compound `O=c1nc(Nc2ccc(N3CCCCC3)cc2)n(Cc2ccc(Cl)cc2)c(=O)n1CCO` [I-311], the half-maximal inhibitory concentration (IC50) turned out to be 142 nM.
